Data on 1 compound can be found in ChEMBL document CHEMBL5113425, “Preparation of a multifunctional photoactivated prodrug on a streptavidin scaffold bearing a DNA aptamer” (Bioorg Med Chem Lett, 2022).

The test system of data set [1] is SK-BR-3. The experiment in a line: Cytotoxicity in human SK-BR-3 cells assessed as reduction in cell viability at 50 to 500 nM incubated for 72 hrs in absence of 15 mins photoirradiation at 365 nm by WST assay. The conditions noted are these: sk-br-3, 72 h, 0.5 µM, dose 50-500 nM. Format: toxicity, cell-based.
Data set [2] deals with SK-BR-3. The experiment in a line: Cytotoxicity in human SK-BR-3 cells assessed as reduction in cell viability at 50 to 500 nM incubated for 72 hrs in presence of 15 mins photoirradiation at 365 nm by WST assay. Format: functional, cell-based. The settings on record: dose 50-500 nM.

SMILES strings stand for the structures. Activity calls are given as the source filed them. No cut-off for these calls is given here.

For `CC[C@@]1(OC(=O)CCCCNC(=O)OC(C)c2cc(OC)c(OCCCC(=O)NCCN3C(=O)CC(NCCNC(=O)CCCC[C@@H]4SC[C@H]5NC(=O)N[C@@H]45)C3=O)cc2[N+](=O)[O-])C(=O)OCc2c1cc1n(c2=O)Cc2cc3ccccc3nc2-1` (some centres not stated), the Activity result in the data set with SK-BR-3 [1] is “Non-Toxic”. Moreover, the outcome with SK-BR-3 [2] was Active.
